Results: ChEMBL document CHEMBL3885881, “DrugMatrix”

Species: Rattus norvegicus
Experiment: DrugMatrix - Regimen: Daily Repeat
Type: toxicity, organism-based, Sprague-Dawley
Parameters: regimen Daily Repeat, gender Male, age 6-8 weeks
Details: in vivo, po, route oral GAVAGE, vehicle 100 % SALINE; for ABSOLUTE EOSINOPHIL / ABSOLUTE LYMPHOCYTE / ABSOLUTE MONOCYTE / ABSOLUTE SEGMENTED NEUTROPHIL / BASOPHIL / EOSINOPHIL / ERYTHROCYTE COUNT / HEMATOCRIT / HEMOGLOBIN / LEUKOCYTE COUNT / LYMPHOCYTE / MEAN CORPUSCULAR HEMOGLOBIN / MEAN CORPUSCULAR HEMOGLOBIN CONCENTRATION / MEAN CORPUSCULAR VOLUME / MONOCYTE / NEUTROPHIL / NUCLEATED RED BLOOD CELLS / PLATELET COUNT / ABSOLUTE BASOPHIL: tissue Blood; for ALANINE AMINOTRANSFERASE / ALBUMIN / ALKALINE PHOSPHATASE / ASPARTATE AMINOTRANSFERASE / BLOOD UREA NITROGEN / CARBON DIOXIDE / CHLORIDE / CHOLESTEROL / CREATINE PHOSPHOKINASE / CREATININE / GLUCOSE / LACTATE DEHYDROGENASE / LIPASE / PHOSPHORUS / POTASSIUM / SODIUM / TOTAL BILIRUBIN / TOTAL PROTEIN / URIC ACID: tissue Plasma
[1] = 29 mg/kg, 120 h, dose level Low, time 5 day
[2] = 200 mg/kg, 72 h, dose level High, time 3 day
[3] = 200 mg/kg, 120 h, dose level High, time 5 day

## Cc1ccnc2c1NC(=O)c1cccnc1N2C1CC1 [NEVIRAPINE]
[1]
  ABSOLUTE EOSINOPHIL: 0 CELLS/uL
  ABSOLUTE LYMPHOCYTE: 5766.33 CELLS/uL
  ABSOLUTE MONOCYTE: 26.67 CELLS/uL
  ABSOLUTE SEGMENTED NEUTROPHIL: 340.33 CELLS/uL
  BASOPHIL: 0%
  EOSINOPHIL: 0%
  ERYTHROCYTE COUNT: 5.58 x10E6/uL
  HEMATOCRIT: 33.7%
  HEMOGLOBIN: 13.2 G/DL
  LEUKOCYTE COUNT: 6.13 x10E3/uL
  LYMPHOCYTE: 94.33%
  MEAN CORPUSCULAR HEMOGLOBIN: 23.7 pg
  MEAN CORPUSCULAR HEMOGLOBIN CONCENTRATION: 39.2 G/DL
  MEAN CORPUSCULAR VOLUME: 60.4 fL
  MONOCYTE: 0.33%
  NEUTROPHIL: 5.33%
  NUCLEATED RED BLOOD CELLS: 0 /100WBC
  PLATELET COUNT: 1219 x10E3/uL
  ALANINE AMINOTRANSFERASE: 55.67 u/L
  ALBUMIN: 4.23 G/DL
  ALKALINE PHOSPHATASE: 280.33 u/L
  ASPARTATE AMINOTRANSFERASE: 82.33 u/L
  BLOOD UREA NITROGEN: 15.33 mg/dL
  CARBON DIOXIDE: 34.33 mmol/L
  CHLORIDE: 98.67 MEQ/L
  CHOLESTEROL: 74.33 mg/dL
  CREATINE PHOSPHOKINASE: 403.67 u/L
  CREATININE: 0.39 mg/dL
  GLUCOSE: 132.33 mg/dL
  LACTATE DEHYDROGENASE: 98.67 u/L
  LIPASE: 11 u/L
  PHOSPHORUS: 10.8 mg/dL
  POTASSIUM: 6.38 MEQ/L
  SODIUM: 144.43 MEQ/L
  TOTAL BILIRUBIN: 0.17 mg/dL
  TOTAL PROTEIN: 5.7 G/DL
  URIC ACID: 0.87 mg/dL
[2]
  ABSOLUTE BASOPHIL: 0 CELLS/uL
  ABSOLUTE EOSINOPHIL: 0 CELLS/uL
  ABSOLUTE LYMPHOCYTE: 4383.33 CELLS/uL
  ABSOLUTE MONOCYTE: 11.67 CELLS/uL
  ABSOLUTE SEGMENTED NEUTROPHIL: 905 CELLS/uL
  BASOPHIL: 0%
  EOSINOPHIL: 0%
  ERYTHROCYTE COUNT: 5.28 x10E6/uL
  HEMATOCRIT: 32.53%
  HEMOGLOBIN: 12.53 G/DL
  LEUKOCYTE COUNT: 5.3 x10E3/uL
  LYMPHOCYTE: 83%
  MEAN CORPUSCULAR HEMOGLOBIN: 23.9 pg
  MEAN CORPUSCULAR HEMOGLOBIN CONCENTRATION: 38.7 G/DL
  MEAN CORPUSCULAR VOLUME: 61.8 fL
  MONOCYTE: 0.33%
  NEUTROPHIL: 16.67%
  NUCLEATED RED BLOOD CELLS: 0.67 /100WBC
  PLATELET COUNT: 1104 x10E3/uL
  ALANINE AMINOTRANSFERASE: 63 u/L
  ALBUMIN: 4.4 G/DL
  ALKALINE PHOSPHATASE: 260.67 u/L
  ASPARTATE AMINOTRANSFERASE: 84.67 u/L
  BLOOD UREA NITROGEN: 16.33 mg/dL
  CARBON DIOXIDE: 27.67 mmol/L
  CHLORIDE: 101.67 MEQ/L
  CHOLESTEROL: 85.33 mg/dL
  CREATINE PHOSPHOKINASE: 227 u/L
  CREATININE: 0.11 mg/dL
  GLUCOSE: 145 mg/dL
  LACTATE DEHYDROGENASE: 139.67 u/L
  LIPASE: 12.33 u/L
  PHOSPHORUS: 10.8 mg/dL
  POTASSIUM: 5.63 MEQ/L
  SODIUM: 147 MEQ/L
  TOTAL BILIRUBIN: 0.13 mg/dL
  TOTAL PROTEIN: 5.9 G/DL
  URIC ACID: 1.03 mg/dL
[3]
  ABSOLUTE BASOPHIL: 0 CELLS/uL
  ABSOLUTE EOSINOPHIL: 0 CELLS/uL
  ABSOLUTE LYMPHOCYTE: 5735 CELLS/uL
  ABSOLUTE MONOCYTE: 88 CELLS/uL
  ABSOLUTE SEGMENTED NEUTROPHIL: 443.67 CELLS/uL
  BASOPHIL: 0%
  EOSINOPHIL: 0%
  ERYTHROCYTE COUNT: 5.22 x10E6/uL
  HEMATOCRIT: 33.87%
  HEMOGLOBIN: 13.47 G/DL
  LEUKOCYTE COUNT: 6.27 x10E3/uL
  LYMPHOCYTE: 91.67%
  MEAN CORPUSCULAR HEMOGLOBIN: 25.83 pg
  MEAN CORPUSCULAR HEMOGLOBIN CONCENTRATION: 39.8 G/DL
  MEAN CORPUSCULAR VOLUME: 64.77 fL
  MONOCYTE: 1.33%
  NEUTROPHIL: 7%
  NUCLEATED RED BLOOD CELLS: 0.67 /100WBC
  PLATELET COUNT: 1370.67 x10E3/uL
  ALANINE AMINOTRANSFERASE: 55.67 u/L
  ALBUMIN: 4.03 G/DL
  ALKALINE PHOSPHATASE: 286 u/L
  ASPARTATE AMINOTRANSFERASE: 87 u/L
  BLOOD UREA NITROGEN: 13 mg/dL
  CARBON DIOXIDE: 33.67 mmol/L
  CHLORIDE: 99 MEQ/L
  CHOLESTEROL: 89.33 mg/dL
  CREATINE PHOSPHOKINASE: 578.67 u/L
  CREATININE: 0.38 mg/dL
  GLUCOSE: 136 mg/dL
  LACTATE DEHYDROGENASE: 142 u/L
  LIPASE: 10.33 u/L
  PHOSPHORUS: 10.57 mg/dL
  POTASSIUM: 6.07 MEQ/L
  SODIUM: 146.23 MEQ/L
  TOTAL BILIRUBIN: 0.13 mg/dL
  TOTAL PROTEIN: 6.13 G/DL
  URIC ACID: 0.63 mg/dL
